# Source: patent US20070093539A1, “N-hydroxy-4-(3-pheyl-5-methyl-isoxazole-4-yl)-benzenesulfonate solvates” (priority 2003, published 2007)
# What was measured:
# [1] = tested on: carrageenan and kaolin induced monoarthritis; assay: Carrageenan and kaolin induced monoarthritis model (incapacitance test); assay type: in vivo, rats; details: 10 mg/kg p.o.
# Procedure: The Incapacitance tester is an apparatus for measure the changes of the functional parameters induced of the pain, which can register the bearing on the hind limb, the amount of the moving and the changing of the centre of gravity. Knee-joint of the right-back limb was treated with solution of 100 μl 2% carrageenan and kaolin. During 3-4 hours after the treatment arthritis was emerged in the capsular ligament of the treated limb. This inflammation still exists at 24 hours after the treatment. Because of the pain the animals coddles the treated limbs, thy weign on it less. Change of weight load is measurable with Incapacitance tester device in grams. The incapacitance was calculated as follows: [formula] Analgesic-antiinflammantory compounds could increase the stimulus threshold of the knee-joint, and consequently to improve the functional parameters of the limb. Measure of this can be counted by the decrease of the loading of left leg i.e. in terms of percentage of reversal. [formula] The Incapacitance induced by administration of irritants in left paw was measured at 4 hour after the injection. Afterwards the animals (n=24-32/group) were. orally treated with dose of 10 mg/kg valdecoxib and test compounds. Measurements were done at 1 and 2 hours after the treatments.
# [2] = tested on: inflammatory mechanical allodynia induced by carrageenan; assay: Carrageenan-induced inflammatory mechanical allodynia (von Frey); assay type: in vivo, male Sprague-Dawley rats; details: 30 mg/kg p.o.
# Procedure: The-threshold of pain of the animals was measured by von Frey apparatus (IITC, type: 1601 C). […] The values were registered in the times of the pick up or raises. During each measurment the threshold was determined at least thrice and the avarage was calculated from the peak values.
# Male Sprague-Dawley rats (weighing 250-300 g) were used (n=5-6/group). 100 μl of saline solution of carrageenant (CA) was injected to the middle of the paw. The stimulus threshold was measured after it, and the treatment was completed with gastro-probe per os. The effects of the materials were measured in 30, 60, 90, 120 minutes after the treatments. The effects were compared for control group treatment with vehicle (solution of 2% Tween-80).
# The effect was calculated as follows: [formula] where tx=30, 60, 90, 120 min
# In the acute pain model the analgesic effects of the valdecoxib and compound of example 1 were considerable with dose of 30 mg/kg p.o. once.
# [3] = tested on: carrageenan induced inflammatory hyperalgesia; assay: Carrageenan induced inflammatory hyperalgesia (Randall-Selitto), acute model; assay type: in vivo, male SPRD rats; details: Acut model, 10 mg/kg p.o.
# Procedure: Edema was induced by injection of Carrageenan (CA) into plantar surface of right hind paw. Male SPRD rats (weighing 140-190 g) were used n=6-8/group). Then the mechanical pain threshold of the inflamed hind paw was determined with an analgesimeter ((Ugo Basile, type: 37215).
# This assay monitors the decrease of the pain threshold, and the time depending changing of the pain by mechanical pain stimulus. Analgesics can increase the pain threshold of the inflamed hinds and this effect is in terms of percentage of reversal.
# Untreated right hind paw was compressed with a progressively increasing pressure. The pressure was recorded (in grams) when the animal first vocalized or made a vigorous attempt to remove the paw. It was determined to baseline threshold of the untreated paw. (average: 80-110 g). After it the animals were treated with carrageenan. After the treatment the edema and the threshold were checked in a given times. […] (Average of inflammation induced pain threshold was 20-25 g, this means 65-80% decrease related to the baseline.)
# 1 hour after the CA injection (100 μl of 2% solution) the animals were treated with test compounds and valdecoxib (10-10 mg/kg p.o.). […]
# The chronic phase of the inflammantion and the decreasing of the threshold were induced by higher dose of CA. Inflammation induced threshold decreasing was measured 24 hours after the CA injection (150 μl of 2% solution). ) After it the animals were treated with test compounds and valdecoxib (30-30 mg/kg p.o.). Change in the threshold was checked at 1 h, 2 h, and 3 h following drug administration. In both model used control groups were treated orally only with solvents at the time of treatments. In both protocol the effects of the test compounds were calculated in percentage reversal of mechanical hiperalgesia: [formula] • T3h: In acute model, the threshold in the control group at 3 h after the CA injection (in gram) • T24h: In chronic model, the threshold in the control group at 24 h after the CA injection (in gram) • T0h: The threshold before the CA injection (in gram) • TXh In acute model, at 3h after the CA injection • TXh=In chronic model, at 25 h, 26 h, 27 h after the CA injection
# [4] = tested on: carrageenan-induced foot paw edema; assay: Carrageenan-induced rat foot paw edema assay; assay type: in vivo, male Wistar rats; details: for ED30 of edema inhibition: p.o.
# Procedure: The edema was induced in male Wistar rats (140-150 g) by subcutaneous injection of carrageenan (50 μl of 1% suspension) into the right hind paw. The formed inflammation was measured with plethysmometer (Ugo Basile, type: 7150). The treated paw was placed into the plethysmometer (filled with 0.3% additives in 0.5% saline), the level of the inflammation was detected by the volume of the displaced solution. This volume was compared with the initial preinjection paw volume. Level of the inflammation (ml)=volume after CA treatment (ml)−volume before CA treatment (ml) The inflammation induced in treated group was compared to control group (which was given only vehicle). The sample materials and the solvent were dosed per os via gastro-sonde 1 hour before the CA treatment. The volume of the treated limb was measured at 3h and 5h after CA treatments. The change of the inflammation level was calculated as follows: [formula]
substance,measurement,setting,value
N-hydroxi-4-(3-phenyl-5-methyl-isoxazole-4-yl)-benzenesulfonamide monohydrate [example 1],Analgesic effect (% reversal) after p.o. treatment,[1]; 1 hour,63.2 % reversal
same,Analgesic effect (% reversal) after p.o. treatment,[1]; 2 hours,76.9 % reversal
same,Analgesic effect in % after p.o. treatment,[2]; 30 min.,61.6%
same,Analgesic effect in % after p.o. treatment,[2]; 1 hour,57.1%
same,Analgesic effect in % after p.o. treatment,[2]; 1.5 hour,44.5%
same,Analgesic effect in % after p.o. treatment,[2]; 2 hours,41.5%
same,Analgesic effect in % after p.o. treatment,[3]; 2 hours,64.6%
same,Analgesic effect in % after p.o. treatment,[3]; 3 hours,40.7%
same,Analgesic effect in % after p.o. treatment,[3]; 4 hours,12.3%
same,edema inhibition effect %,"[4]; 0.3 mg/kg p.o., 4 hours after treatment",19.5%
same,edema inhibition effect %,"[4]; 0.3 mg/kg p.o., 6 hours after treatment",17.5%
same,edema inhibition effect %,"[4]; 1.0 mg/kg p.o., 4 hours after treatment",25.2%
same,edema inhibition effect %,"[4]; 1.0 mg/kg p.o., 6 hours after treatment",37.2%
same,edema inhibition effect %,"[4]; 3.0 mg/kg p.o., 4 hours after treatment",33.9%
same,edema inhibition effect %,"[4]; 3.0 mg/kg p.o., 6 hours after treatment",40.4%
same,edema inhibition effect %,"[4]; 10.0 mg/kg p.o., 4 hours after treatment",40.7%
same,edema inhibition effect %,"[4]; 10.0 mg/kg p.o., 6 hours after treatment",59.2%
same,ED30 of edema inhibition,[4]; 4 hours after treatment,1.8 mg/kg
same,ED30 of edema inhibition,[4]; 6 hours after treatment,0.8 mg/kg
